Legend:
Assay in all cases: relative viability (nuclei count vs DMSO), 5 days (fraction); higher = more cells survive
Doramapimod + Bortezomib = compound: Cc1ccc(-n2nc(C(C)(C)C)cc2NC(=O)Nc2ccc(OCCN3CCOCC3)c3ccccc23)cc1 [Doramapimod] + CC(C)C[C@H](NC(=O)[C@H](Cc1ccccc1)NC(=O)c1cnccn1)B(O)O [Bortezomib] (partner 0.002 µM)
Summary of the method: (§1)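 Lung cancer cell lines in 1536-well plates were dosed by pin tool the day after seeding, either with one drug alone or with a fixed anchor-drug dose plus five library-drug doses (not always all listed) in √10 steps. After 5 days, cells were fixed and their nuclei stained in one step (final 0.05% Triton X-100, 1% formaldehyde, 1 ug/ml Hoechst), then counted on 4× images. Relative viability is the nuclei count in treated wells divided by that in vehicle wells. Values are medians of duplicate plates.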

RAF265 + Foretinib = compound: Cn1c(Nc2ccc(C(F)(F)F)cc2)nc2cc(Oc3ccnc(-c4ncc(C(F)(F)F)[nH]4)c3)ccc21 [RAF265] + COc1cc2c(Oc3ccc(NC(=O)C4(C(=O)Nc5ccc(F)cc5)CC4)cc3F)ccnc2cc1OCCCN1CCOCC1 [Foretinib] (partner 0.25 µM)
Summary of the method: as §1

RAF265 + Lapatinib = compound: Cn1c(Nc2ccc(C(F)(F)F)cc2)nc2cc(Oc3ccnc(-c4ncc(C(F)(F)F)[nH]4)c3)ccc21 [RAF265] + CS(=O)(=O)CCNCc1ccc(-c2ccc3ncnc(Nc4ccc(OCc5cccc(F)c5)c(Cl)c4)c3c2)o1 [Lapatinib] (partner 2 µM)
Summary of the method: as §1

RAF265 + Crizotinib = compound: Cn1c(Nc2ccc(C(F)(F)F)cc2)nc2cc(Oc3ccnc(-c4ncc(C(F)(F)F)[nH]4)c3)ccc21 [RAF265] + C[C@@H](Oc1cc(-c2cnn(C3CCNCC3)c2)cnc1N)c1c(Cl)ccc(F)c1Cl [Crizotinib] (partner 1 µM)
Summary of the method: as §1

Row | Cell Line | relative viability (Doramapimod + Bortezomib; first compound 0.02 µM) | relative viability (Doramapimod + Bortezomib; first compound 0.06325 µM) | relative viability (Doramapimod + Bortezomib; first compound 0.2 µM) | relative viability (Doramapimod + Bortezomib; first compound 0.6325 µM) | relative viability (Doramapimod + Bortezomib; first compound 2 µM) | relative viability (RAF265 + Foretinib; first compound 0.01 µM) | relative viability (RAF265 + Foretinib; first compound 0.03162 µM) | relative viability (RAF265 + Foretinib; first compound 0.1 µM) | relative viability (RAF265 + Foretinib; first compound 0.3162 µM) | relative viability (RAF265 + Foretinib; first compound 1 µM) | relative viability (RAF265 + Lapatinib; first compound 0.01 µM) | relative viability (RAF265 + Lapatinib; first compound 0.03162 µM) | relative viability (RAF265 + Lapatinib; first compound 0.1 µM) | relative viability (RAF265 + Lapatinib; first compound 0.3162 µM) | relative viability (RAF265 + Lapatinib; first compound 1 µM) | relative viability (RAF265 + Crizotinib; first compound 0.01 µM) | relative viability (RAF265 + Crizotinib; first compound 0.03162 µM) | relative viability (RAF265 + Crizotinib; first compound 0.1 µM) | relative viability (RAF265 + Crizotinib; first compound 0.3162 µM) | relative viability (RAF265 + Crizotinib; first compound 1 µM)
1 | NCI-H838 | 1.05 | 0.965 | 1.01 | 1.22 | 0.73 | 1.06 | 1.07 | 1.01 | 1.07 | 0.951 | 1.02 | 0.927 | 0.972 | 0.971 | 0.885 | 0.807 | 0.855 | 0.989 | 0.911 | 0.718
2 | NCI-H1650 | 0.232 | 0.23 | 0.194 | 0.191 | 0.189 | 1.01 | 1.29 | 1.35 | 1.17 | 0.953 | 0.844 | 0.749 | 0.874 | 0.325 | 0.637 | 1.03 | 0.83 | 1.15 | 0.877 | 0.913
3 | IA-LM | 0.842 | 0.757 | 0.795 | 0.92 | 0.656 | 1.21 | 0.933 | 1 | 0.946 | 0.769 | 0.652 | 0.578 | 0.759 | 0.653 | 0.52 | 0.711 | 0.646 | 0.803 | 0.768 | 0.642
4 | NCI-H1703 | 0.305 | 0.208 | 0.226 | 0.365 | 0.218 | 0.335 | 0.318 | 0.351 | 0.357 | 0.253 | 1.07 | 0.825 | 1.03 | 0.613 | 0.386 | 0.567 | 0.512 | 0.581 | 0.449 | 0.195
5 | NCI-H322M | 1.26 | 1.43 | 1.18 | 1.26 | 1.35 | 1.09 | 1.03 | 0.781 | 0.402 | 0.275 | 0.579 | 0.529 | 0.481 | 0.342 | 0.258 | 0.897 | 0.839 | 0.866 | 0.281 | 0.282
6 | NCI-H661 | 0.793 | 0.794 | 0.719 | 0.942 | 0.667 | 1.05 | 0.944 | 0.685 | 0.636 | 0.521 | 0.539 | 0.466 | 0.532 | 0.442 | 0.308 | 0.931 | 0.747 | 1.04 | 0.906 | 0.716
7 | NCI-H2228 | 0.952 | 0.966 | 1.11 | 1.06 | 0.758 | 0.893 | 0.819 | 0.781 | 0.542 | 0.386 | 1.25 | 0.859 | 1.24 | 0.416 | 0.43 | 0.382 | 0.369 | 0.333 | 0.356 | 0.321
8 | NCI-H520 | 0.671 | 0.699 | 0.529 | 0.677 | 0.364 | 0.763 | 0.585 | 0.749 | 0.819 | 0.474 | 0.894 | 0.873 | 0.776 | 0.694 | 0.498 | 0.632 | 0.762 | 0.774 | 0.771 | 0.607

Source: the supplement of paper PMC10307832
